Laboratory results as given in ChEMBL document CHEMBL1201862, “PubChem BioAssay data set” (2004).
Calls of active or inactive are those of the source. Cut-off read from the data, not from the text of the source: actives have a measured IC50 and inactives only a lower limit.

Target: Envelope glycoprotein gp160 (Human immunodeficiency virus 1, UniProt Q6QLK5)
Test: cell-free HIV fusion peptide-binding blockers – biochemical, uHTS, fluorescence dequenching, […] (AID 1986)

Envelope glycoprotein gp160, sequence (Q6QLK5 whole entry, the tested form may be a part): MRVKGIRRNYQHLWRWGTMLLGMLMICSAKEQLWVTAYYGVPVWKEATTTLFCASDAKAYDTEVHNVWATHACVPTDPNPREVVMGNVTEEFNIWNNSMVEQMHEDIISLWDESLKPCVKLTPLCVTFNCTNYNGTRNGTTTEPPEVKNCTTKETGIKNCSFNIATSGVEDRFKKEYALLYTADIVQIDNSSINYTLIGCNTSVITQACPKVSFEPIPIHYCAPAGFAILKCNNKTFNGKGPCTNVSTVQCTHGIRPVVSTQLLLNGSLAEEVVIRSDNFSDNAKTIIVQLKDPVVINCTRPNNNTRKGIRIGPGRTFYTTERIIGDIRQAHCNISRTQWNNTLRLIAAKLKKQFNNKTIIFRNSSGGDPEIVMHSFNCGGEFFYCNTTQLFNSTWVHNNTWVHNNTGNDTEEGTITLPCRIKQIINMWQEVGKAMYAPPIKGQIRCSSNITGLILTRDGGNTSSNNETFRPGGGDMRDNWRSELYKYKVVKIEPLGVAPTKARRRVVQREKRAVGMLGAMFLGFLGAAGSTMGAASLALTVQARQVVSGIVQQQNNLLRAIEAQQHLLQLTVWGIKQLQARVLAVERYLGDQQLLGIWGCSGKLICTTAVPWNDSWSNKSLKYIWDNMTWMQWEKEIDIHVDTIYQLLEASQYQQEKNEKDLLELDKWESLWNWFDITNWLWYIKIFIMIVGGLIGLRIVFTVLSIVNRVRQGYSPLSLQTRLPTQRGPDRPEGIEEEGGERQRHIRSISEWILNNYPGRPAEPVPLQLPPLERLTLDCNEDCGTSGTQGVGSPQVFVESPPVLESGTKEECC

| Structure (SMILES) | IC50 |
| --- | --- |
| CC(c1ccccc1)N1C(=O)c2ccc(C(=O)Nc3ccc(Br)cc3C(=O)O)cc2C1=O (configuration not stated) | 14.1 µM (active) |
| CC(C)(C)c1ccc(S(=O)(=O)/N=C2\C=C(NS(=O)(=O)c3ccccc3)C(=O)c3ccccc32)cc1 | 9.23 µM (active) |
